Data from the CheMixHub viscosity set.

Test: xn = mol fraction of the nth substance listed

COC(=O)OC + CCC(C)O
101.3 kPa
Details	viscosity [mPa·s]
293.15 K, x1 = 0.0505	2.908
293.15 K, x1 = 0.0986	2.37
293.15 K, x1 = 0.2131	1.522
293.15 K, x1 = 0.2801	1.235
293.15 K, x1 = 0.4092	0.94
293.15 K, x1 = 0.511	0.83
293.15 K, x1 = 0.6172	0.753
293.15 K, x1 = 0.7072	0.696
293.15 K, x1 = 0.7997	0.637
293.15 K, x1 = 0.8229	0.621
293.15 K, x1 = 0.9518	0.595
298.15 K, x1 = 0.0572	2.399
298.15 K, x1 = 0.0994	1.991
298.15 K, x1 = 0.1958	1.354
298.15 K, x1 = 0.3029	0.991
298.15 K, x1 = 0.3339	0.926
298.15 K, x1 = 0.5075	0.756
298.15 K, x1 = 0.6051	0.707
298.15 K, x1 = 0.7037	0.641
298.15 K, x1 = 0.808	0.569
298.15 K, x1 = 0.9046	0.531
298.15 K, x1 = 0.9523	0.542
303.15 K, x1 = 0.0573	1.931
303.15 K, x1 = 0.0842	1.728
303.15 K, x1 = 0.1936	1.195
303.15 K, x1 = 0.2981	0.943
303.15 K, x1 = 0.3926	0.809
303.15 K, x1 = 0.4938	0.709
303.15 K, x1 = 0.59	0.632
303.15 K, x1 = 0.6561	0.594
303.15 K, x1 = 0.7945	0.549
303.15 K, x1 = 0.8916	0.547
303.15 K, x1 = 0.9483	0.546
313.15 K, x1 = 0.0498	1.512
313.15 K, x1 = 0.1005	1.289
313.15 K, x1 = 0.2009	0.975
313.15 K, x1 = 0.2952	0.795
313.15 K, x1 = 0.4047	0.669
313.15 K, x1 = 0.5109	0.6
313.15 K, x1 = 0.6072	0.561
313.15 K, x1 = 0.6982	0.529
313.15 K, x1 = 0.7992	0.502
313.15 K, x1 = 0.8977	0.486
313.15 K, x1 = 0.9583	0.486

ClC(Cl)C(Cl)Cl + CCCC(=O)OCC
viscosity [mPa·s], 101.3 kPa
Details	308.15 K	318.15 K
x2 = 0.0477	1.326	1.209
x2 = 0.1018	1.243	1.135
x2 = 0.2004	1.11	1.019
x2 = 0.2603	1.04	0.957
x2 = 0.3965	0.906	0.837
x2 = 0.4979	0.824	0.764
x2 = 0.6073	0.753	0.699
x2 = 0.6955	0.701	0.652
x2 = 0.8023	0.649	0.605
x2 = 0.9007	0.61	0.569
x2 = 0.9705	0.585	0.547

COC(=O)OC + CCCCCC
Details	viscosity [mPa·s]
298.15 K, 101 kPa, x1 = 0.0961	0.2912
